Source: ChEMBL document CHEMBL5230100, “Novel quinazoline-based EGFR kinase inhibitors: A review focussing on SAR and molecular docking studies (2015-2019)” (Eur J Med Chem, 2020)
Several values for one entry are separate records, joined by “and”; a condition that tells them apart may be missing. Equal entries are not always repeated. Blank lines part the entries; values can stand above or below the molecule they belong to.

What was measured:
[1] = target: T1, Epidermal growth factor receptor (Homo sapiens, UniProt P00533); assay: Inhibition of EGFR (unknown origin) incubated for 1 hrs by ELISA assay
[2] = target: T2, Receptor tyrosine-protein kinase erbB-2 (Homo sapiens, UniProt P04626); assay: Inhibition of HER2 (unknown origin) incubated for 1 hrs by ELISA assay
MDA-MB-231 [3] = assay: Anticancer activity against human MDA-MB-231 cells assessed as cell growth inhibition incubated for 24 hrs by MTT assay; assay type: functional, cell-based; details: MDA-MB-231, 24 h
MDA-MB-231 [4] = assay: Cytotoxicity against human MDA-MB-231 assessed as radio sensitizing effect incubated for 24 hrs in presence of gamma irradiation by MTT assay; assay type: functional
A549 [5] = assay: cells; assay type: functional, cell-based; details: Homo sapiens, A549, 48 h
Description: Antiproliferative activity against human A549 cells assessed as cell growth inhibition incubated for 48 hrs by MTT assay

HepG2 [6] = assay: cells; assay type: functional, cell-based; details: Homo sapiens, HepG2, 48 h
Description: Antiproliferative activity against human HepG2 cells assessed as cell growth inhibition incubated for 48 hrs by MTT assay

MCF7 = assay: Antiproliferative activity against human MCF7 cells assessed as cell growth inhibition incubated for 72 hrs by MTT assay; assay type: functional, cell-based; details: MCF7, 72 h
A549 [7] = assay: cells; assay type: functional, cell-based; details: Homo sapiens, A549, 72 h
Description: Antiproliferative activity against human A549 cells assessed as cell growth inhibition incubated for 72 hrs by MTT assay

HepG2 [8] = assay: Antiproliferative activity against human HepG2 cells assessed as cell growth inhibition incubated for 72 hrs by MTT assay; assay type: functional, cell-based; details: HepG2, 72 h
[9] = target: T1, Epidermal growth factor receptor
[10] = target: T3, Epidermal growth factor receptor (Homo sapiens, UniProt P00533, T790M/L858R)
[11] = target: T1, Epidermal growth factor receptor; remark: listed apart in the source
[12] = target: T2, Receptor tyrosine-protein kinase erbB-2; assay: Inhibition of human HER2
[13] = target: Vascular endothelial growth factor receptor 2 (Homo sapiens, UniProt P35968)
Description: Inhibition of VEGFR2 (unknown origin)

HT-29 = assay: Antiproliferative activity against human HT-29 cells assessed as cell growth inhibition incubated for 72 hrs by MTT assay; assay type: functional, cell-based; details: Homo sapiens, HT-29, 72 h
HL-60 = assay: Antiproliferative activity against human HL-60 cells assessed as cell growth inhibition incubated for 72 hrs by MTT assay; assay type: functional, cell-based
K562 = assay: Antiproliferative activity against human K562 cells assessed as cell growth inhibition incubated for 72 hrs by MTT assay; assay type: functional, cell-based; details: K562, 72 h
MRC5 = assay: Antiproliferative activity against human MRC5 cells assessed as cell growth inhibition incubated for 72 hrs by MTT assay; assay type: functional, cell-based; details: MRC5, 72 h
Caspase-3 (Homo sapiens) = Caspase-3 (Homo sapiens) (UniProt P42574); assay: Activation of caspase 3 (unknown origin); details: filed as activator
MDA-MB-231 [14] = assay: Antiproliferative activity against human MDA-MB-231 cells assessed as cell growth inhibition incubated for 24 hrs by MTT assay; assay type: functional, cell-based; details: MDA-MB-231, 24 h
[15] = target: Epidermal growth factor receptor (Homo sapiens, UniProt P00533, L858R/T790M)
A-431 [16] = assay: cells; assay type: functional, cell-based; details: Homo sapiens, A-431, 72 h
Description: Antiproliferative activity against human A-431 cells assessed as cell growth inhibition incubated for 72 hrs by MTT assay

NCI-H1975 = assay: Antiproliferative activity against human NCI-H1975 cells assessed as cell growth inhibition incubated for 72 hrs by MTT assay; assay type: functional, cell-based; details: NCI-H1975, 72 h
HCC827 = assay: cells; assay type: functional, cell-based; details: Homo sapiens, HCC827, 72 h
Description: Antiproliferative activity against human HCC827 cells assessed as cell growth inhibition incubated for 72 hrs by MTT assay

cells = assay type: functional, cell-based; details: Homo sapiens, HBE, 72 h
Description: Antiproliferative activity against human HBE cells assessed as cell growth inhibition incubated for 72 hrs by MTT assay

[17] = Half life in human liver microsomes by LC-MS/MS analysis; assay type: ADME
[18] = Volume of distribution at steady state in Sprague-Dawley rat at 10 mg/kg, iv by LC-MS/MS analysis; assay type: ADME, organism-based; details: in vivo
[19] = AUClast in Sprague-Dawley rat plasma at 10 mg/kg, iv by LC-MS/MS analysis; assay type: ADME, organism-based; parameters: dose 10 mg/kg, route iv
[20] = AUC (0 to infinity) in Sprague-Dawley rat plasma at 10 mg/kg, iv by LC-MS/MS analysis; assay type: ADME, organism-based; parameters: dose 10 mg/kg, route iv
[21] = MRT (0 to 24 hrs) in Sprague-Dawley rat plasma at 10 mg/kg, iv by LC-MS/MS analysis; assay type: ADME, organism-based
[22] = Half life in Sprague-Dawley rat plasma at 10 mg/kg, iv by LC-MS/MS analysis; assay type: ADME, organism-based; details: in vivo
[23] = target: T1, Epidermal growth factor receptor; assay: Inhibition of human EGFR incubated for 1 hrs in presence of ATP by ELISA assay
A549 [24] = assay: Anticancer activity against human A549 cells assessed as cell growth inhibition incubated for 24 hrs by MTT assay; assay type: functional, cell-based; details: A549, 24 h
[25] = target: T2, Receptor tyrosine-protein kinase erbB-2
A-431 [26] = assay: Antiproliferative activity against human A-431 cells assessed as cell growth inhibition incubated for 24 hrs by MTT assay; assay type: functional
A549 [27] = assay: Antiproliferative activity against human A549 cells assessed as cell growth inhibition incubated for 24 hrs by MTT assay; assay type: functional, cell-based; details: A549, 24 h
[28] = target: T1, Epidermal growth factor receptor; assay: Inhibition of EGFR (unknown origin) incubated for 10 mins in presence of ATP by mobility shift assay
[29] = target: T3, Epidermal growth factor receptor; assay: Inhibition of EGFR L858R/T790M mutant (unknown origin) incubated for 10 mins in presence of ATP by mobility shift assay
PC-3 = assay: Antiproliferative activity against human PC-3 cells assessed as cell growth inhibition incubated for 72 hrs by MTT assay; assay type: functional, cell-based; details: PC-3, 72 h

T1 sequence (P00533 whole entry): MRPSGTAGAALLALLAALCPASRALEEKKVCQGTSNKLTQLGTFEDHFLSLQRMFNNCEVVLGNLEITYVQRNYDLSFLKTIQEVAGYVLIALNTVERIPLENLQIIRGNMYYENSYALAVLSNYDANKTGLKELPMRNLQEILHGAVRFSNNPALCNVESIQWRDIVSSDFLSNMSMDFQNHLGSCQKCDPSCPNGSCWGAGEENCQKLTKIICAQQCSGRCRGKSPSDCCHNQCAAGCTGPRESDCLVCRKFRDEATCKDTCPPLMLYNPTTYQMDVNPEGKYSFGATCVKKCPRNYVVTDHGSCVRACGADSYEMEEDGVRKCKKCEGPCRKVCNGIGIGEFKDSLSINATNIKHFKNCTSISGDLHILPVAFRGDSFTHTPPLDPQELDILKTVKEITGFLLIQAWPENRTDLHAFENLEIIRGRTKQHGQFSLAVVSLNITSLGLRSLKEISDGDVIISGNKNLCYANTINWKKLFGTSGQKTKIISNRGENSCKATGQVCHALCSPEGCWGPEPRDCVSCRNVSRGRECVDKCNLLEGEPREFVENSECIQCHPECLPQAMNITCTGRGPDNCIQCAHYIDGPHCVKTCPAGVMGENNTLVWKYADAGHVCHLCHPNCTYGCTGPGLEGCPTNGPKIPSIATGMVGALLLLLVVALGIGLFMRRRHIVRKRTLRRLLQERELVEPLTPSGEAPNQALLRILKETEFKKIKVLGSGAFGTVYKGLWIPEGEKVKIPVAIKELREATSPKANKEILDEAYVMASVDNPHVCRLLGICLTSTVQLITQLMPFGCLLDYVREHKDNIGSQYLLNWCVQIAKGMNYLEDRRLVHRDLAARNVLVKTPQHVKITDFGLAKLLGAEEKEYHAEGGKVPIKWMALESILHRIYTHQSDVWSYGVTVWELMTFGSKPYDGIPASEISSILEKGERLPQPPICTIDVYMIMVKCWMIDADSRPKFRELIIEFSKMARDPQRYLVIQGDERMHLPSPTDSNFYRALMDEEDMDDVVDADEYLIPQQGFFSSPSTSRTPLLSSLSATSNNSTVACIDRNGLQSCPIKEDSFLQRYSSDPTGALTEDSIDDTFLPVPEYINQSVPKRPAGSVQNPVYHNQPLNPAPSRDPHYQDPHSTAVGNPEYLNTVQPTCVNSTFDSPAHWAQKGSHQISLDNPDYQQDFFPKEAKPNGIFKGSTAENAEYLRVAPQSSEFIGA
T2 sequence (P04626 whole entry): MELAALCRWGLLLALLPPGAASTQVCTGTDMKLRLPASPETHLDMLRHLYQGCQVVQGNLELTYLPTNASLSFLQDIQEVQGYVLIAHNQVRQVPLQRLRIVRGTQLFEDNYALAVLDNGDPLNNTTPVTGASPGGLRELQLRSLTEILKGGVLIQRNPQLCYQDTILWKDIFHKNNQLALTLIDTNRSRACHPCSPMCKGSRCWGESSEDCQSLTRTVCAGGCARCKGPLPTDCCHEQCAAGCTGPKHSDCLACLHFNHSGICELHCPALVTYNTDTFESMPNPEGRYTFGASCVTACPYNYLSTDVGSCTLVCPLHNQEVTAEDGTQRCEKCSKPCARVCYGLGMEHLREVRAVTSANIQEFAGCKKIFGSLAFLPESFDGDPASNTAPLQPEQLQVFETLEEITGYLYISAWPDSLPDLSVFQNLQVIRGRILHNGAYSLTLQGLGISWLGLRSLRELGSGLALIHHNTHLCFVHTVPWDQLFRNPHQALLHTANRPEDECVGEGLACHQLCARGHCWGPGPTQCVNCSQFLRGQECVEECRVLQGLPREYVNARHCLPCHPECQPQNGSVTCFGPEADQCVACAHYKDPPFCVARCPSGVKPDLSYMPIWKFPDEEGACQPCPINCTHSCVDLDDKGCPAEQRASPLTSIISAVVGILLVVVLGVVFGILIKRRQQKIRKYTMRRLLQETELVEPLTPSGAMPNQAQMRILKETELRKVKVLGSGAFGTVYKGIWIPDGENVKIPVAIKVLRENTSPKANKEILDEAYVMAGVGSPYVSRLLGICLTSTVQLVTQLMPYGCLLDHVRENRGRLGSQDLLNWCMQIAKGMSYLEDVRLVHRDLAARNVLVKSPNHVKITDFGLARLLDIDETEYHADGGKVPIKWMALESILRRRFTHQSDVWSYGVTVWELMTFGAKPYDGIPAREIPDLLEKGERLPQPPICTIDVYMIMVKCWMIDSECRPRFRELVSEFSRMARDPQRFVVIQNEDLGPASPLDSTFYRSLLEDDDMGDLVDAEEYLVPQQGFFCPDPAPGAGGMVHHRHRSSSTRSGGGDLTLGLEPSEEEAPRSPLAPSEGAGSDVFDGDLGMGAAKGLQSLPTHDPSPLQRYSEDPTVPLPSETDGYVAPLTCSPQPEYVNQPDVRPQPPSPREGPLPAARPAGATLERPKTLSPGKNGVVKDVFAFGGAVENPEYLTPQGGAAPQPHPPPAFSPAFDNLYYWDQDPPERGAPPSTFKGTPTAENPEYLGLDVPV
T3 sequence (P00533 25-1210 T790M/L858R limits assumed): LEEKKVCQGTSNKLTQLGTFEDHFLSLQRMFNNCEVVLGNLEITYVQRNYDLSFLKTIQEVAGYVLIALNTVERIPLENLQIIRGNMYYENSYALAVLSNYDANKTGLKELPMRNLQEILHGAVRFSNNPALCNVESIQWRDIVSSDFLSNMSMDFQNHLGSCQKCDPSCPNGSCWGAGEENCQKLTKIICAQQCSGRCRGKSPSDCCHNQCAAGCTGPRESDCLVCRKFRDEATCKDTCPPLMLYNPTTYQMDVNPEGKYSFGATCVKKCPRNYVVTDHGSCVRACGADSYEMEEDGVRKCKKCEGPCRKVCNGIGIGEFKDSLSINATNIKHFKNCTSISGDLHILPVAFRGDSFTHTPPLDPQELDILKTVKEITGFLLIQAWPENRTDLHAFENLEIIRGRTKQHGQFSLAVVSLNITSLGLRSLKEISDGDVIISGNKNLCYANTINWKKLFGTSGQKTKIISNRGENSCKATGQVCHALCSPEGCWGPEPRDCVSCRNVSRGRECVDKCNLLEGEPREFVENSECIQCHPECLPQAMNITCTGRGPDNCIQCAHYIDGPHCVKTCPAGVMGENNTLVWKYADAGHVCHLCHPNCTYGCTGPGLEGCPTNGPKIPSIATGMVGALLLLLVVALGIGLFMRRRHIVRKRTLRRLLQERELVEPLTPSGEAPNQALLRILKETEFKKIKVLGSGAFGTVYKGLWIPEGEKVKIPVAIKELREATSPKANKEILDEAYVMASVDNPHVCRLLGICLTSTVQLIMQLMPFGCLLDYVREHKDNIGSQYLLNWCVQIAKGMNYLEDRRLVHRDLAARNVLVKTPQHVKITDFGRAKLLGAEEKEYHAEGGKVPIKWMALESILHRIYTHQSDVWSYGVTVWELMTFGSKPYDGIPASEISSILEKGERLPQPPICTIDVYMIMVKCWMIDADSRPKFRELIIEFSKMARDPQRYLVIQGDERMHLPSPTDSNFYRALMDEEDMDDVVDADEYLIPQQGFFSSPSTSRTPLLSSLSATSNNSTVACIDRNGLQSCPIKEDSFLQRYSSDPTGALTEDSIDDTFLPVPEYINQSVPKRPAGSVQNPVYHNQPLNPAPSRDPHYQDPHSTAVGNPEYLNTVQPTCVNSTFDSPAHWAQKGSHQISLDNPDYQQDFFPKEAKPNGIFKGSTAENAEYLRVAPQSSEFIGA
Sequence of Vascular endothelial growth factor receptor 2 (P35968 whole entry): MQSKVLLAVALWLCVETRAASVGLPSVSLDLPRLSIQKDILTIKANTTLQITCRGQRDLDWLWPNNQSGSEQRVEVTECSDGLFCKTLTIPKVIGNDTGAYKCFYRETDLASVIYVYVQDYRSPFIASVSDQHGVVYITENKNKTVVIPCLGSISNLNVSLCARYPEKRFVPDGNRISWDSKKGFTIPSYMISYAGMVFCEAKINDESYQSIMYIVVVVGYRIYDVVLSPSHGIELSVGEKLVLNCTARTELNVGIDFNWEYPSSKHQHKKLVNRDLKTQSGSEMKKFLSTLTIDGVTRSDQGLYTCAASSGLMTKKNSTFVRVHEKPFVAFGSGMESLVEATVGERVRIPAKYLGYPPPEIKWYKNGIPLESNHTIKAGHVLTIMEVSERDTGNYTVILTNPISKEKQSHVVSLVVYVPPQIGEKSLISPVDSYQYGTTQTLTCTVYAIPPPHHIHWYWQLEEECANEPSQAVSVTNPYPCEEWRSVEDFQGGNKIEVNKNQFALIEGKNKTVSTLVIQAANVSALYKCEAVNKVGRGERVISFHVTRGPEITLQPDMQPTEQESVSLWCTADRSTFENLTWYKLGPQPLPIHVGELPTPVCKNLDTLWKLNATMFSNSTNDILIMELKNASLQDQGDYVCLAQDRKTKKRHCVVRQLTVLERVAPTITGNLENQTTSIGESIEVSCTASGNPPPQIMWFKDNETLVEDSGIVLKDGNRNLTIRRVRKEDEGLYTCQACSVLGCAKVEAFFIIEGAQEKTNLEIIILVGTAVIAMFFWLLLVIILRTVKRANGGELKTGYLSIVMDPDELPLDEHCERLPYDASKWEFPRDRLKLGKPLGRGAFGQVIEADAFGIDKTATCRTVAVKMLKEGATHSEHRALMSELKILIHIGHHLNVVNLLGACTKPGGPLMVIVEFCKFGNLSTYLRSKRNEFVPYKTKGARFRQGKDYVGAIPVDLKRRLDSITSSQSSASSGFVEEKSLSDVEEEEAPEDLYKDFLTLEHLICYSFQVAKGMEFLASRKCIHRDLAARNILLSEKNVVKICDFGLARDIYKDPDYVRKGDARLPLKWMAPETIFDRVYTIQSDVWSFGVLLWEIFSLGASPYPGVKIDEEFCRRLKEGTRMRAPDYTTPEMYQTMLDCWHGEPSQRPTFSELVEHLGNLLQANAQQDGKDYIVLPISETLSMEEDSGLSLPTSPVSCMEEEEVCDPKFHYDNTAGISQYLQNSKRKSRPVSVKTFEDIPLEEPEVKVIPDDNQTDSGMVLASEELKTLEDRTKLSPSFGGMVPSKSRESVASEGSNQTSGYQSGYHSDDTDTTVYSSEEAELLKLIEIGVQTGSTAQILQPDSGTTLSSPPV

SMILES: CN1C(=O)c2ccc(NC(=O)CSc3nc4cc5ccccc5cc4c(=O)n3-c3ccc(S(N)(=O)=O)cc3)cc2C1=O
- IC50 [1]: 640 nM
- IC50 [2]: 1320 nM
- IC50 (MDA-MB-231 [3]): 500 nM
- Activity (MDA-MB-231 [4]): 0.18 µM

SMILES: O=C(O)c1cc(O)c2c(c1)C(=O)c1cccc(O)c1C2=O [RHEIN]
- IC50 (A549 [5]): 138 µM
- IC50 (HepG2 [6]): 74.6 µM

SMILES: O=C(N/N=C/c1cnc(N2CCCC2)nc1)Nc1cc2c(Nc3ccc(F)c(Cl)c3)ncnc2cc1O[C@H]1CCOC1
- IC50 (MCF7): 2370 nM
- IC50 (A549 [7]): 5.9 µM
- IC50 (HepG2 [8]): 4630 nM
- IC50 [9]: 6.3 nM
- IC50 [10]: 8.4 nM

SMILES: NS(=O)(=O)c1ccc(CCn2c(SCC(=O)Nc3ccc(Cl)cc3)nc3ccccc3c2=O)cc1
- IC50 (MCF7): 1040 nM
- IC50 [11]: 200 nM
- IC50 [12]: 170 nM
- IC50 [13]: 390 nM
- IC50 (HT-29): 1430 nM
- IC50 (HL-60): 410 nM and 2030 nM
- IC50 (K562): 2030 nM
- IC50 (MRC5): 3.77 µM

SMILES: C=CC(=O)Nc1ccccc1Nc1ncnc2cc(OC)c(OCCN3CCOCC3)cc12
- IC50 (A549 [7]): 32.4 µM
- IC50 [15]: 4.3 nM
- IC50 (A-431 [16]): 13.5 µM
- IC50 (NCI-H1975): 8.7 µM
- IC50 (HCC827): 650 nM
- IC50 (cells): 34 µM

SMILES: COc1cc2ncnc(Nc3ccc(F)c(Cl)c3)c2cc1OCCCN1CCOCC1 [GEFITINIB]
- t1/2 [17]: 22.51 min
- Vdss [18]: 5.93 L/kg
- AUC(0-t) [19]: 7720 ng·h/mL
- AUC(0-inf) [20]: 7800 ng·h/mL
- MRT last [21]: 4.54 h
- t1/2 [22]: 3.85 h

SMILES: COc1cc2ncnc(NCc3ccc(Cl)s3)c2cc1OC
- IC5 (A-431 [26]): 3.4 µM
- IC50 (A549 [27]): > 50 µM

SMILES: CN(C)CCn1cccc1/C=N/NC(=O)Nc1cc2c(Nc3ccc(F)c(Cl)c3)ncnc2cc1O[C@H]1CCOC1
- IC50 (MCF7): 4820 nM
- IC50 (A549 [7]): 1.84 µM
- IC50 [28]: 0.05 nM
- IC50 [29]: 5.6 nM
- IC50 (HepG2 [8]): 40 nM
- IC50 (PC-3): 3.84 µM

More lines, now with the values ahead:

- Activity (Caspase-3 (Homo sapiens)): 546 pg/mL
- IC50 (MDA-MB-231 [14]): 310 nM
SMILES: Cc1ccc(NC(=O)CSc2nc3cc4ccccc4cc3c(=O)n2-c2ccc(S(N)(=O)=O)cc2)cc1C

- IC50 [23]: 12 nM
- IC50 (A549 [24]): 181 nM
- IC50 [25]: 21 nM
SMILES: Cc1ccccc1NC(=O)CSc1nc2cc3ccccc3cc2c(=O)n1-c1ccc(S(N)(=O)=O)cc1

- IC50 (A549 [24]): 727 nM
SMILES: CCc1cccc(NC(=O)CSc2nc3cc4ccccc4cc3c(=O)n2-c2ccc(S(N)(=O)=O)cc2)c1

- IC50 [23]: 9 nM
- IC50 (A549 [24]): 105 nM
- IC50 [25]: 21 nM
SMILES: Cc1ccc(NC(=O)CSc2nc3cc4ccccc4cc3c(=O)n2-c2ccc(S(N)(=O)=O)cc2)cc1
